The results in this text go back to patent US20140255527A1, “Expression Promoting Agent For Clock Gene And Hyaluronic Acid Synthase Gene” (SHISEIDO COMPANY, LTD., priority 2011, published 2014).

The structures appear in SMILES notation.

Holding throughout (assay type): cell-based
Holding throughout (conditions): medical agent for stimulation in cultured human dermal fibroblast system; no data shown

One assay relates to Period1 clock gene. In words: Expression amount of Period1 clock gene in cultured human dermal fibroblast (RT-PCR, relative to RPLP0).
For the next assay, the system named is Bmal1 clock gene. In words: Expression amount of Bmal1 clock gene in cultured human dermal fibroblast (RT-PCR, relative to RPLP0).
Assay [1] deals with HAS2 hyaluronic acid synthase gene. The experiment in a line: Expression amount of HAS2 hyaluronic acid synthase gene in cultured human dermal fibroblast (RT-PCR, relative to RPLP0).
Description: (§1) Moreover, as the clock gene, an amount of expression of a Bmal gene (typified by Bmal1) or a Period gene (typified by Period1) in connection with the core system was measured. As a hyaluronic acid synthase gene, an amount of expression of hyaluronic acid synthase gene 2 (HAS2) was measured. […] In experiments described below, a gene expression amount after 16 hours or 2 hours from the stimulation was used as an index, respectively, and an effect on promotion of expression of the Bmal gene, the Period gene and the HAS2 gene being a test substance was evaluated.
(§2) As a cultured human dermal fibroblast, a commercially available normal human dermal fibroblast derived from adult skin (Cell Application, Inc) was purchased, and used for an experiment. Seeding was made in a DMEM culture medium prepared by adding 10% FBS, 20 mM HEPES, Glutamax and an antibacterial agent, and culture was made at 37° C. under 5% CO2. […] From the cell taken therefrom, RNA was extracted using a commercially available RNA extraction kit, and an expression amount of a clock gene (Period1, Bmal1) and a hyaluronic acid synthase gene (HAS2) was measured using a commercially available PCR primer (Perfect Real Time Primer, TAKARA BIO INC.) according to an RT-PCR method. […]

Description for Bmal1 clock gene: as §1, §2
Description for Period1 clock gene: as §1, §2

In the case of `C[C@]12CCC(=O)C=C1CC[C@@H]1[C@@H]2[C@@H](O)C[C@@]2(C)[C@H]1CC[C@]2(O)C(=O)CO` [cortisol], in the assay on Period1 clock gene, the “time of peaked expression amount of Period1 after stimulation (circadian rhythm)” value stood at 2 h. The “time of peaked expression amount of Bmal1 after stimulation (circadian rhythm)” value with Bmal1 clock gene is reported as “approximately 16 hours”. The “time of peaked expression amount of HAS2 after stimulation (circadian rhythm)” value in assay [1] is recorded as “approximately 16 hours”.

In the case of `C=C[C@@]1(C)CC(=O)[C@]2(O)[C@@]3(C)[C@@H](O)CCC(C)(C)[C@@H]3[C@H](O)[C@H](OC(C)=O)[C@@]2(C)O1` [forskolin], in the assay with Period1 clock gene, the “time of peaked expression amount of Period1 after stimulation (circadian rhythm)” value was 2 h. In the assay on Bmal1 clock gene, the “time of peaked expression amount of Bmal1 after stimulation (circadian rhythm)” value is listed as “approximately 16 hours”. For the same molecule, the “time of peaked expression amount of HAS2 after stimulation (circadian rhythm)” value in assay [1] is recorded as “approximately 16 hours”.
